Structures can show the parent of a compound that is named as a salt.
What was measured:
[1] = test system: HT1080 (human fibrosarcoma); assay: Cell adhesion assay on matrigel coated wells; format: cell-based; conditions: percent of adhesion with respect to the control (100%)
Method: Cell surface, non-integrin molecules such as heparan sulfate proteoglycans (HSPGs) may be involved in the regulation of early adhesive stages of cell-ECM interactions. A cell adhesion assay has been employed to determine if the newly designed heparanase inhibitors were able to interfere with adhesion properties of cancer cells. […] Then cells were collected, washed in complete medium, and added to matrigel coated wells in triplicate, at previously identified optimal seeding density, and incubated at 37 °C in complete medium for times ranging from 15 minutes to 4h, according to the cell line. […] Optical density was measured at 560 nm by Victor 3 (Perkin-Elmer) plate analyzer. Each experiment was repeated three times. Table 4. […] In Invasion assay, data were expressed as the percent invasion (range) with respect to cell migration through uncoated insert membrane.

MMP-9 = assay: Real-Time quantitative PCR of mRNA gene expression in HT1080 cells; format: cell-based, human; conditions: 2.5 uM, 24 h
FGF-1 = assay: as above; format: cell-based, human; conditions: 2.5 uM, 24 h
FGF-2 = assay: as above; format: cell-based, human; conditions: 2.5 uM, 24 h
HPSE-1 = conditions: 2.5µM; HT1080 cells
Method: To evaluate the effect of heparanase inhibitors on the tumor transcription of genes encoding for proangiogenic factors, such as FGF1/2, VEGF, MMP-9, HSPE-1, the relative mRNA levels were analyzed by quantitative Real-Time Quantitative PCR. To perform the assay, HT1080 (human fibrosarcoma) cells were cultured in complete medium containing 10%FCS (fetal calf serum). Cells were plated in 24-well plates and treated at fixed concentration (i.e., highest non-toxic concentration) of test compounds. After 24 h, cells were detached, collected and total RNA extracted by RNeasy Mini Kit (QIAGEN). Following reverse transcription step, FGF1/2, VEGF, MMP-9, HSPE-1 mRNA levels, were quantified by qPCR using the advanced Universal SYBR Green Supermix (Bio Rad) and ABI PRISM 7900HT Thermal Cycler System (Perkin Elmer), according to the manufacturer's instructions. […] Relative levels of RNA were calculated using the ddCt method. Standard curve and sample data were run in duplicate.

VEGF = assay: Real-Time quantitative PCR of mRNA gene expression in HT1080 cells; format: cell-based, human; conditions: 2.5 uM, 24 h
[2] = test system: HT1080 (human fibrosarcoma); assay: Matrigel cell invasion assay; format: cell-based; conditions: HT-1080
Method: Heparanase inhibitors were then evaluated for their activity on the invasive potential of HT1080 (human fibrosarcoma) human cell lines, using the Matrigel cell invasion assay which allows to assess the cell invasion ability of malignant and normal cells. Invasion assay was performed using BioCoat cell culture inserts (BioCoat 8.0µm PET Membrane 24 Well Permeable Supports, Corning). Filters were coated with 100 µl of 300 µg/ml Matrigel dissolved in coating buffer (0.01 M Tris pH 8.0, 0.7% NaCl) (Becton-Dickinson Sciences). DMEM (Dulbecco's Modified Eagle's Medium) containing 5% FBS was added to the lower chambers. Cells were pre-treated with heparanase inhibitors for 24 h, detached and added to the upper chambers in media containing the inhibitors. Cells were allowed to invade for 24 h at 37°C in a CO2 incubator and then unmigrated cells were removed from the upper chamber with a cotton swab. […] Test compounds were analyzed at fixed concentration for several fields, in duplicates. Activity of test compounds was compared to the reference compound. Activity of most interesting compound was confirmed in a second cell invasion assay. Data were expressed as the percent invasion with respect to cell migration through uncoated insert membrane. (Table 4) Table 4. […] In Invasion assay, data were expressed as the percent invasion (range) with respect to cell migration through uncoated insert membrane.

[3] = test system: U2OS (human osteosarcoma); assay: SRB Cell Cytotoxicity Assay; format: cell-based
Method: (§1) SRB Cell Cytotoxicity Assay is an assay based upon the quantitative staining of cellular proteins by sulforhodamine B (SRB). This assay can be used for high-throughput drug screening ([…], Nature Protocol. 2006, 1, 112). Sulforhodamine B is an anionic aminoxanthene dye that forms an electrostatic complex with the basic amino acid residues of proteins under moderately acid conditions, which provides a sensitive linear response. […] Inhibition of cell proliferation was then measured by the classical colorimetric SRB Cell Cytotoxicity assay. Absorbance was measured by spectrophotometer at a wavelength of 510 nm and cell proliferation was determined as percent with respect to control cells (cells treated with the vehicle alone). EC50 values were then determined by GraphPad Prism.

[4] = test system: HT1080 (human fibrosarcoma); assay: SRB Cell Cytotoxicity Assay; format: cell-based
Method: as §1

[5] = test system: U87MG (human glioblastoma astrocytoma); assay: SRB Cell Cytotoxicity Assay; format: cell-based
Method: as §1

Row | Compound | Adhesion Assay (%) HT1080; 2.5 µM ([1]; 2.5 µM) | Gene Expression (% mRNA vs. control) MMP-9 (MMP-9) | Gene Expression (% mRNA vs. control) FGF-1 (FGF-1) | Gene Expression (% mRNA vs. control) FGF-2 (FGF-2) | silencing of heparanase gene (in words) (HPSE-1) | Gene Expression (% mRNA vs. control) VEGF (VEGF) | other results
1 | Cn1cc(NC(=O)c2cccc(NC(=O)Nc3cccc(C(=O)Nc4cc(C(=O)Nc5ccc6c(S(=O)(=O)O)cccc6c5S(=O)(=O)O)n(C)c4)c3)c2)cc1C(=O)Nc1ccc2c(S(=O)(=O)[O-])cccc2c1S(=O)(=O)[O-].[Na+].[Na+] [Example 1, Disodium 2,2'-{carbonylbis[imino-3,1-phenylenecarbonylimino(1-methyl-1H-pyrrole-4,2-diyl)carbonylimino]}dinaphthalene-1,5-disulfonate salt] | ∼ 86% | – | – | – | – | – | –
2 | O=C(Nc1cccc(C(=O)Nc2cc(C(=O)Nc3ccc4c(S(=O)(=O)[O-])cccc4c3S(=O)(=O)[O-])n(C3CC3)c2)c1)Nc1cccc(C(=O)Nc2cc(C(=O)Nc3ccc4c(S(=O)(=O)O)cccc4c3S(=O)(=O)O)n(C3CC3)c2)c1.[Na+].[Na+] [Example 2, Disodium 2,2'-{carbonylbis[imino-3,1-phenylenecarbonylimino(1-cyclopropyl-1H-pyrrole-4,2-diyl)carbonylimino]}dinaphthalene-1,5-disulfonate salt] | ∼ 88% | – | – | – | – | – | –
3 | Cn1cc(NC(=O)Nc2cc(C(=O)Nc3cccc(C(=O)Nc4ccc5c(S(=O)(=O)O)cccc5c4S(=O)(=O)O)c3)n(C)c2)cc1C(=O)Nc1cccc(C(=O)Nc2ccc3c(S(=O)(=O)O)cccc3c2S(=O)(=O)O)c1 [Example 6, Disodium 2,2'-{carbonylbis[imino(1-methyl-1H-pyrrole-4,2-diyl)carbonylimino-3,1-phenylenecarbonylimino]}dinaphthalene-1,5-disulfonate salt] | ∼ 86% | ∼ 80% | ∼ 87% | ∼ 98% | almost complete silencing of heparanase gene | ∼ 85% | –
4 | Cn1cc(NC(=O)Nc2cc(C(=O)Nc3cc(C(=O)Nc4ccc5c(S(=O)(=O)O)cccc5c4S(=O)(=O)O)n(C)c3)n(C)c2)cc1C(=O)Nc1cc(C(=O)Nc2ccc3c(S(=O)(=O)O)cccc3c2S(=O)(=O)O)n(C)c1 [FCE27266, disodium 2,2'-{carbonylbis[imino(1-methyl-1H-pyrrole-4,2-diyl)carbonylimino(1-methyl-1H-pyrrole-4,2-diyl)carbonylimino]}dinaphthalene-1,5-disulfonate salt] | ∼ 93% | ∼ 100% | ∼ 44% | ∼ 86% | almost complete silencing of heparanase gene | ∼ 100% | –
5 | Cc1ccc(C(=O)Nc2ccc(S(=O)(=O)O)c3cc(S(=O)(=O)O)cc(S(=O)(=O)O)c23)cc1NC(=O)c1cccc(NC(=O)Nc2cccc(C(=O)Nc3cc(C(=O)Nc4ccc(S(=O)(=O)O)c5cc(S(=O)(=O)O)cc(S(=O)(=O)O)c45)ccc3C)c2)c1 [Suramin, suramin] | – | – | – | – | – | – | Adhesion Assay (%) HT1080; 2.5 µM ([1]; Reference compound (Suramin) at 10 µM according to b319): ∼ 100%; inhibition at 2.5 µM [2]: < 50%; IC50 ([3]; Homo sapiens, 72h treatment, read-out: Concentration of test compounds at which the cell growth is inhibited by 50 % U2OS): > 2.5 µM; interference with the cell growth (in words) ([3]; tested up to 2.5 µM): do not interfere with the cell growth; interference with the cell growth (in words) ([4]; HT1080, tested up to 2.5 µM): do not interfere with the cell growth; IC50 ([4]; Homo sapiens, HT-1080, 72h treatment, read-out: Concentration of test compounds at which the cell growth is inhibited by 50 % HT1080): > 2.5 µM; IC50 ([5]; Homo sapiens, U-87 MG, 72h treatment, read-out: Concentration of test compounds at which the cell growth is inhibited by 50 % U87MG): > 2.5 µM; interference with the cell growth (in words) ([5]; U87MG, tested up to 2.5 µM): do not interfere with the cell growth
